Values after ≈ are worked out from the molar mass of the structure shown. Where two headings read alike, the source gives them in different places. Starred links: 1 amine or outer side, 2 acyl side, 3 side chain; linkers in the order of their positions; H or OH if unused. Positions of bridges follow the written chain, without caps; N, C: chain ends. Residues, ends and D or L forms follow the SMILES beside them. Groups on a side chain read outwards from the residue. *: point of attachment. C20 diacid = O=C(O)CCCCCCCCCCCCCCCCCCC(=O)*; γGlu = O=C(O)[C@H](CCC(=O)[*:2])N[*:1]; AEEA = NCCOCCOCC(=O)O
Test: Assay (IV) determination of solubility
Assay type: physicochemical
Experimental: ASSAY (IV)—Determination of Solubility
The polypeptide was dissolved in water at ˜500 nmol/ml and mixed 1:1 with a series of buffers (100 mM glycylglycine pH 3.0, 100 mM glycylglycine pH 4.0, 100 mM glycylglycine pH 5.0, 100 mM bistrispropane pH 6.0, 100 mM bistrispropane pH 6.5, 100 mM bistrispropane pH 7.0, 100 mM bistrispropane pH 7.5, 100 mM bistrispropane pH 8.0). After 18 hours at room temperature the samples were centrifuged and the polypeptide concentration determined by HPLC.

[1] = pH 3, pH 3.0, read-out: Solubility pH 3.0
[2] = pH 4, pH 4.0, read-out: Solubility pH 4.0
[3] = pH 5, pH 5.0, read-out: Solubility pH 5.0
[4] = pH 6, pH 6.0, read-out: Solubility pH 6.0
[5] = pH 6.5, pH 6.5, read-out: Solubility pH 6.5
[6] = pH 7, pH 7.0, read-out: Solubility pH 7.0
[7] = pH 7.5, pH 7.5, read-out: Solubility pH 7.5
[8] = pH 8, pH 8.0, read-out: Solubility pH 8.0
[9] = pH 4, pH 4.0, 18 hours at room temperature, Table 2, read-out: Solubility pH 4.0
[10] = pH 7, pH 7.0, 18 hours at room temperature, Table 3, read-out: Solubility pH 7.0

Structure (SMILES) | solubility [1] [µM] | solubility [2] [µM] | solubility [3] [µM] | solubility [4] [µM] | solubility [5] [µM] | solubility [6] [µM] | solubility [7] [µM] | solubility [8] [µM] | solubility [9] [µM] | solubility [10] [µM]
CC[C@H](C)[C@H](NC(=O)[C@H](CCCCNC(=O)COCCOCCNC(=O)COCCOCCNC(=O)CC[C@H](NC(=O)CCCCCCCCCCCCCCCCCCC(=O)O)C(=O)O)NC(=O)CNC(=O)[C@H](Cc1ccccc1)NC(=O)[C@H](CC(N)=O)NC(=O)[C@H](Cc1c[nH]cn1)NC(=O)[C@H](CO)NC(=O)[C@H](CO)NC(=O)[C@H](Cc1c[nH]cn1)NC(=O)[C@H](Cc1c[nH]cn1)NC(=O)[C@H](CC(C)C)NC(=O)[C@H](Cc1ccccc1)NC(=O)[C@H](CC(N)=O)NC(=O)[C@H](C)NC(=O)[C@H](CC(C)C)NC(=O)[C@H](CCCNC(=N)N)NC(=O)[C@H](CCC(N)=O)NC(=O)[C@@H](NC(=O)[C@H](C)NC(=O)[C@@H]1CSSC[C@H](NC(=O)[C@@H](N)CCCCN)C(=O)N[C@@H](CC(N)=O)C(=O)N[C@@H]([C@@H](C)O)C(=O)N[C@@H](C)C(=O)N[C@@H]([C@@H](C)O)C(=O)N1)[C@@H](C)O)C(=O)N[C@@H](CC(C)C)C(=O)N[C@@H](CO)C(=O)N[C@@H](CO)C(=O)N[C@H](C(=O)N[C@@H](CC(N)=O)C(=O)N[C@H](C(=O)NCC(=O)N[C@@H](CO)C(=O)N[C@@H](Cc1c[nH]cn1)C(=O)N[C@H](C(=O)N[C@@H](Cc1ccc(O)cc1)C(N)=O)[C@@H](C)O)C(C)C)[C@@H](C)O [Example 134, N-epsilon25-[2-(2-{2-[2-(2-{2-[(S)-4-Carboxy-4-(19-carboxyheptadecanoylamino)butyrylamino]ethoxy}ethoxy)acetylamino]ethoxy}ethoxy)acetyl]-[His17,His21,Lys25,Ser28,Ser29.His35]-pramlintide] (H-KCNTATCATQRLANFLHHSSHNFGK([AEEA-AEEA-γGlu-C20 diacid])ILSSTNVGSHTY-NH2; disulfide 2-7) | > 200 | > 200 | > 200 | 3 (≈ 14.4 µg/mL) | 1 (≈ 4.79 µg/mL) | 2 (≈ 9.58 µg/mL) | 3 (≈ 14.4 µg/mL) | 2 (≈ 9.58 µg/mL) |  | 
CC[C@H](C)[C@H](NC(=O)[C@@H]1CCCN1C(=O)CNC(=O)[C@H](Cc1ccccc1)NC(=O)[C@H](CC(N)=O)NC(=O)[C@H](CCCCNC(=O)COCCOCCNC(=O)COCCOCCNC(=O)CC[C@H](NC(=O)CCCCCCCCCCCCCCCCCCC(=O)O)C(=O)O)NC(=O)[C@H](CO)NC(=O)[C@H](CO)NC(=O)[C@H](Cc1c[nH]cn1)NC(=O)[C@@H](NC(=O)[C@H](CC(C)C)NC(=O)[C@H](Cc1ccccc1)NC(=O)[C@H](CCC(=O)O)NC(=O)[C@H](C)NC(=O)[C@H](CC(C)C)NC(=O)[C@H](CCCNC(=N)N)NC(=O)[C@H](CCC(N)=O)NC(=O)[C@@H](NC(=O)[C@H](C)NC(=O)[C@@H]1CSSC[C@H](NC(=O)[C@@H](N)CCCCN)C(=O)N[C@@H](CC(N)=O)C(=O)N[C@@H]([C@@H](C)O)C(=O)N[C@@H](C)C(=O)N[C@@H]([C@@H](C)O)C(=O)N1)[C@@H](C)O)C(C)C)C(=O)N[C@@H](CC(C)C)C(=O)N1CCC[C@H]1C(=O)N[C@@H](CO)C(=O)N[C@H](C(=O)N[C@@H](CC(N)=O)C(=O)N[C@H](C(=O)NCC(=O)N[C@@H](CO)C(=O)N[C@@H](Cc1c[nH]cn1)C(=O)N[C@H](C(=O)N[C@@H](Cc1ccc(O)cc1)C(N)=O)[C@@H](C)O)C(C)C)[C@@H](C)O [Example 127, N-epsilon21-[2-(2-{2-[2-(2-{2-[(S)-4-Carboxy-4-(19-carboxyheptadecanoylamino)butyrylamino]ethoxy}ethoxy)acetylamino]ethoxy}ethoxy)acetyl]-[Glu14,Lys21,Ser29,His35]-pramlintide] (H-KCNTATCATQRLAEFLVHSSK([AEEA-AEEA-γGlu-C20 diacid])NFGPILPSTNVGSHTY-NH2; disulfide 2-7) | > 200 | > 200 | > 200 | > 200 | > 200 | > 200 | > 200 | > 200 | > 200 | > 200
CC[C@H](C)[C@H](NC(=O)[C@@H]1CCCN1C(=O)CNC(=O)[C@H](Cc1ccccc1)NC(=O)[C@H](CC(N)=O)NC(=O)[C@H](CCCCNC(=O)COCCOCCNC(=O)COCCOCCNC(=O)CC[C@H](NC(=O)CCCCCCCCCCCCCCCCCCC(=O)O)C(=O)O)NC(=O)[C@H](CO)NC(=O)[C@H](CO)NC(=O)[C@H](CCCNC(=N)N)NC(=O)[C@H](Cc1c[nH]cn1)NC(=O)[C@H](CC(C)C)NC(=O)[C@H](Cc1ccccc1)NC(=O)[C@H](CCC(=O)O)NC(=O)[C@H](C)NC(=O)[C@H](CC(C)C)NC(=O)[C@H](CCCNC(=N)N)NC(=O)[C@H](CCC(N)=O)NC(=O)[C@@H](NC(=O)[C@H](C)NC(=O)[C@@H]1CSSC[C@H](NC(=O)[C@@H](N)CCCNC(=N)N)C(=O)N[C@@H](CC(N)=O)C(=O)N[C@@H]([C@@H](C)O)C(=O)N[C@@H](C)C(=O)N[C@@H]([C@@H](C)O)C(=O)N1)[C@@H](C)O)C(=O)N[C@@H](CC(C)C)C(=O)N1CCC[C@H]1C(=O)N1CCC[C@H]1C(=O)N[C@H](C(=O)N[C@@H](CC(N)=O)C(=O)N[C@H](C(=O)NCC(=O)N[C@@H](CO)C(=O)N[C@@H](CC(N)=O)C(=O)N[C@H](C(=O)N[C@@H](Cc1ccc(O)cc1)C(N)=O)[C@@H](C)O)C(C)C)[C@@H](C)O [Example 14, N-epsilon21-[2-(2-{2-[2-(2-{2-[(S)-4-Carboxy-4-(19-carboxyheptadecanoylamino)butyrylamino]ethoxy}ethoxy)acetylamino]ethoxy}ethoxy)acetyl]-[Arg1,Glu14,His17,Arg18,Lys21]-pramlintide] (H-RCNTATCATQRLAEFLHRSSK([AEEA-AEEA-γGlu-C20 diacid])NFGPILPPTNVGSNTY-NH2; disulfide 2-7) | > 200 | > 200 | > 200 | 192 (≈ 923 µg/mL) | 102 (≈ 490 µg/mL) | 13 (≈ 62.5 µg/mL) | 7 (≈ 33.7 µg/mL) | 47 (≈ 226 µg/mL) | > 200 | 

Results, then the compound that gave them:

solubility [1] [µM] | solubility [2] [µM] | solubility [3] [µM] | solubility [4] [µM] | solubility [5] [µM] | solubility [6] [µM] | solubility [7] [µM] | solubility [8] [µM] | solubility [9] [µM] | solubility [10] [µM] | Structure (SMILES)
> 200 | > 200 | > 200 | > 200 | > 200 | > 200 | > 200 | > 200 | > 200 | > 200 | CC[C@H](C)[C@H](NC(=O)[C@@H]1CCCN1C(=O)CNC(=O)[C@H](Cc1ccccc1)NC(=O)[C@H](CC(N)=O)NC(=O)[C@H](C)NC(=O)[C@H](CO)NC(=O)[C@H](CO)NC(=O)[C@H](Cc1c[nH]cn1)NC(=O)[C@H](Cc1c[nH]cn1)NC(=O)[C@H](CC(C)C)NC(=O)[C@H](Cc1ccccc1)NC(=O)[C@H](CCC(=O)O)NC(=O)[C@H](C)NC(=O)[C@H](CC(C)C)NC(=O)[C@H](CCCNC(=N)N)NC(=O)[C@H](CCC(N)=O)NC(=O)[C@@H](NC(=O)[C@H](C)NC(=O)[C@@H]1CSSC[C@H](NC(=O)[C@H](CCCCN)NC(=O)COCCOCCNC(=O)COCCOCCNC(=O)CC[C@H](NC(=O)CCCCCCCCCCCCCCCCCCC(=O)O)C(=O)O)C(=O)N[C@@H](CC(N)=O)C(=O)N[C@@H]([C@@H](C)O)C(=O)N[C@@H](C)C(=O)N[C@@H]([C@@H](C)O)C(=O)N1)[C@@H](C)O)C(=O)N[C@@H](CC(C)C)C(=O)N1CCC[C@H]1C(=O)N1CCC[C@H]1C(=O)N[C@H](C(=O)N[C@@H](CC(N)=O)C(=O)N[C@H](C(=O)NCC(=O)N[C@@H](CO)C(=O)N[C@@H](CC(N)=O)C(=O)N[C@H](C(=O)N1CCC[C@H]1C(N)=O)[C@@H](C)O)C(C)C)[C@@H](C)O [Example 169, N-alpha-[2-(2-{2-[2-(2-{2-[(S)-4-Carboxy-4-(19-carboxyheptadecanoylamino)butyrylamino]ethoxy}ethoxy)acetylamino]ethoxy}ethoxy)acetyl]-[Glu14,His17,Ala21,Pro37]-pramlintide] ({C20 diacid-γGlu-AEEA-AEEA}-KCNTATCATQRLAEFLHHSSANFGPILPPTNVGSNTP-NH2; disulfide 2-7)
> 200 | > 200 | > 200 | > 200 | > 200 | > 200 | > 200 | > 200 | > 200 | > 200 | CC[C@H](C)[C@H](NC(=O)[C@@H]1CCCN1C(=O)CNC(=O)[C@H](Cc1ccccc1)NC(=O)[C@H](CC(N)=O)NC(=O)[C@H](CCC(N)=O)NC(=O)[C@H](CO)NC(=O)[C@H](CO)NC(=O)[C@H](Cc1c[nH]cn1)NC(=O)[C@H](CCCNC(=N)N)NC(=O)[C@H](CC(C)C)NC(=O)[C@H](Cc1ccccc1)NC(=O)[C@H](CCC(=O)O)NC(=O)[C@H](C)NC(=O)[C@H](CC(C)C)NC(=O)[C@H](CCCNC(=N)N)NC(=O)[C@H](CCC(N)=O)NC(=O)[C@@H](NC(=O)[C@H](C)NC(=O)[C@@H]1CSSC[C@H](NC(=O)[C@H](CCCNC(=N)N)NC(=O)[C@H](CCC(=O)O)NC(=O)[C@H](CCC(=O)O)NC(=O)CC[C@H](NC(=O)CCCCCCCCCCCCCCCCCCC(=O)O)C(=O)O)C(=O)N[C@@H](CC(N)=O)C(=O)N[C@@H]([C@@H](C)O)C(=O)N[C@@H](C)C(=O)N[C@@H]([C@@H](C)O)C(=O)N1)[C@@H](C)O)C(=O)N[C@@H](CC(C)C)C(=O)N1CCC[C@H]1C(=O)N1CCC[C@H]1C(=O)N[C@H](C(=O)N[C@@H](CCC(N)=O)C(=O)N[C@H](C(=O)NCC(=O)N[C@@H](CO)C(=O)N[C@@H](CCC(N)=O)C(=O)N[C@H](C(=O)N1CCC[C@H]1C(N)=O)[C@@H](C)O)C(C)C)[C@@H](C)O [Example 159, N-alpha-[(S)-4-Carboxy-4-(19-carboxynonadecanoylamino)butyryl]-Glu-Glu-[Arg1,Glu14,Arg17,Gln21,Gln31,Gln35,Pro37]-pramlintide] ({C20 diacid-γGlu}-EERCNTATCATQRLAEFLRHSSQNFGPILPPTQVGSQTP-NH2; disulfide 4-9)
